Ends that are not written are not given here.
How the values were obtained:
[1] = system: S. aureus ATCC 6538; test: Agar diffusion assay (inhibition zone diameter); assay type: cell-based, Staphylococcus aureus; design: key: R: Resistant; I: Intermediate; S: Sensitive; settings: 5 μg ampicillin, 5 μg gentamicin, 37 °C, 24 h
Experimental: (§1) Microorganisms used for this study were as follows: Staphylococcus aureus ATCC 6538, Pseudomonas aeruginosa ATCC 9027, and Candida albicans ATCC 90028. Microorganisms were routinely cultured in tryptic soy broth (TSB) supplemented with 0.1% glucose, at 37 °C, for 18 h prior to experiments, and corresponding cell concentration was adjusted to 10^6 CFU mL^−1 by optical density at 600 nm. Stock cultures were maintained in trypticase soy agar (TSA) and Sabouraud dextrose agar containing glycerol at −80 °C.
(§2) For antimicrobial testing, the agar disc diffusion method was used and the antimicrobial susceptibility was detected by analyzing the inhibition zones, measured and compared according to the standards set by the CLSI [106], which classify the strains as sensitive (S), intermediate (I), or resistant (R). All tests were performed in duplicate, and the antimicrobial activity was expressed as the mean of inhibition diameters (mm, ±standard deviation, SD) produced by the extracts.
(§3) Microorganisms were cultivated overnight and a suspension containing 10^6 CFU mL^−1 was spread on plates containing TSA or Sabouraud agar. Holes of approximately 5 × 3 mm were made in the agar and were filled with 30 μL of the extract stock solution (1 mg/mL). After incubation at 37 °C for 24 h, inhibition zones were measured in millimeters and compared to the controls. […]

[2] = system: P. aeruginosa ATCC 9027; test: Agar diffusion assay (inhibition zone diameter); assay type: cell-based, Pseudomonas aeruginosa; design: key: R: Resistant; I: Intermediate; S: Sensitive; settings: 5 μg ampicillin, 5 μg gentamicin, 37 °C, 24 h
Experimental: as §1, §2, §3

[3] = system: C. albicans ATCC 90028; test: Agar diffusion assay (inhibition zone diameter); assay type: cell-based, Candida albicans; design: key: R: Resistant; I: Intermediate; S: Sensitive; settings: 1 μg amphotericin B, 37 °C, 24 h
Experimental: as §1, §2, §3

[4] = system: C. albicans ATCC 90028; test: Broth microdilution MIC determination; assay type: cell-based, Candida albicans; settings: 80% inhibition of growth in liquid medium (TSB), 37 °C, 18 h, mean of three replicates ± SD
Experimental: as §1, with “°C. The minimum inhibitory concentration (MIC) determination was conducted as described in our previous papers. Briefly, microbes were inoculated in TSB and incubated at 37 °C to the exponential phase. Then, the inoculum was diluted with fresh TSB to 10^6 CFU/mL, and 50 μL microbial dilutions were mixed with serial dilutions of fractions or peptides (50 μL) in 96-well microtiter plates.” for “°C.”

[5] = system: S. aureus ATCC 6538; test: Broth microdilution MIC determination; assay type: cell-based, Staphylococcus aureus; settings: 80% inhibition of growth in liquid medium (TSB), 37 °C, 18 h, mean of three replicates ± SD
Experimental: as §1, with “°C. The minimum inhibitory concentration (MIC) determination was conducted as described in our previous papers. Briefly, microbes were inoculated in TSB and incubated at 37 °C to the exponential phase. Then, the inoculum was diluted with fresh TSB to 10^6 CFU/mL, and 50 μL microbial dilutions were mixed with serial dilutions of fractions or peptides (50 μL) in 96-well microtiter plates.” for “°C.”

[6] = system: P. aeruginosa ATCC 9027; test: Broth microdilution MIC determination; assay type: cell-based, Pseudomonas aeruginosa; settings: 80% inhibition of growth in liquid medium (TSB), 37 °C, 18 h, mean of three replicates ± SD
Experimental: as §1, with “°C. The minimum inhibitory concentration (MIC) determination was conducted as described in our previous papers. Briefly, microbes were inoculated in TSB and incubated at 37 °C to the exponential phase. Then, the inoculum was diluted with fresh TSB to 10^6 CFU/mL, and 50 μL microbial dilutions were mixed with serial dilutions of fractions or peptides (50 μL) in 96-well microtiter plates.” for “°C.”

[7] = system: mature biofilms of S. aureus, P. aeruginosa, and C. albicans; test: Mature biofilm eradication assay, crystal violet; assay type: cell-based; settings: preformed 24 h biofilm, peptide 10 to 80 μM for 24 h, 30 °C; for Dispersion (clearance) of mature biofilm biomass: strain and concentration not stated for the values (Figure 4)
Experimental: (§4) The microorganism’s ability to form biofilm was determined using the method previously described in our laboratory. Bacterial and fungal biofilm prevention and eradication assays were performed based on our published protocols. Synthetized peptides (P0–P4) were tested at sub-MIC concentrations ranging from 10 to 80 μM in triplicate in both assays. For the prevention of biofilm formation, diluted cultures of each strain were added to 96-well plates and incubated with peptides (at concentrations ranging from 10 to 80 μM) at 30 °C, for 24 h. For the eradication of mature biofilm, diluted cultures of C. albicans and two bacteria were added to 96-well plates and incubated at 30 °C. After 24 h, the planktonic cells and medium were aspirated from the wells and fresh medium was added to the well, followed by peptides at the same concentrations. Plates were incubated at 30 °C, for an additional 24 h. For both above mentioned assays, the planktonic cells and medium were aspirated at the end of the final incubation period, and wells were washed twice with PBS. The residual attached biofilms were fixed with 95% v/v ethanol per well and, after 20 min, plates were emptied and left to dry. Plates were stained for 15 min with 0.1% w/v crystal violet. Excess stain was then removed by rinsing the plate with PBS. The plates were allowed to dry, and the crystal violet-stained biofilm was solubilized with 200 μL of 30% v/v glacial acetic acid per well. The OD of each well was measured at 550 nm with a microplate reader. The same formula described above was used to quantify the biofilm biomass forming when the incubation was done with peptides or when remaining after incubation with peptides. The percentage of biofilm inhibition and eradication was determined by the formula: biofilm reduction % = OD control − OD sample/OD control × 100%.

[8] = system: C. albicans biofilm; assay type: cell-based, Candida albicans; settings: 24 h
Experimental: as §4, with “For both above mentioned assays, the planktonic cells and medium were aspirated at the end of the final incubation period, and wells were washed twice with PBS. The residual attached biofilms were fixed with 95% v/v ethanol per well and, after 20 min, plates were emptied and left to dry. Plates were stained for 15 min with 0.1% w/v crystal violet. Excess stain was then removed by rinsing the plate with PBS. The plates were allowed to dry, and the crystal violet-stained biofilm was solubilized with 200 μL of 30% v/v glacial acetic acid per well.” left out

Compound: CC1(C)S[C@@H]2[C@H](NC(=O)[C@H](N)c3ccccc3)C(=O)N2[C@H]1C(=O)O [AMP, Ampicillin]
- Susceptibility class to positive control (CLSI interpretative chart) [1]: S
- Susceptibility class to positive control (CLSI interpretative chart) [2]: R

Compound: C[C@@H]1[C@H](O)[C@@H](C)/C=C/C=C/C=C/C=C/C=C/C=C/C=C/[C@H](O[C@@H]2O[C@H](C)[C@@H](O)[C@H](N)[C@@H]2O)C[C@@H]2O[C@](O)(C[C@@H](O)C[C@@H](O)[C@H](O)CC[C@@H](O)C[C@@H](O)CC(=O)O[C@H]1C)C[C@H](O)[C@H]2C(=O)O [AMPH-B, amphotericin B]
- Susceptibility class to positive control (CLSI interpretative chart) [3]: S

Compound: CNC(C)C1CCC(N)C(OC2C(N)CC(N)C(OC3OCC(C)(O)C(NC)C3O)C2O)O1 (stereo not shown) [G, Gentamicin]
- Susceptibility class to positive control (CLSI interpretative chart) [1]: S
- Susceptibility class to positive control (CLSI interpretative chart) [2]: S

Compound: AGTNK-NH2 [P0]
- MIC80 synthetized peptides [4]: 200 ± 3 µM
- MIC80 synthetized peptides [5]: 150 ± 2 µM
- MIC80 synthetized peptides [6]: 200 ± 3 µM
- Dispersion (clearance) of mature biofilm biomass [7]: about 70%

Compound: EGQGVISLQAGTNK-NH2 [P3]
- MIC80 synthetized peptides [4]: 100 ± 4 µM
- MIC80 synthetized peptides [5]: 80 ± 1 µM
- MIC80 synthetized peptides [6]: 50 ± 3 µM
- Dispersion (clearance) of mature biofilm biomass [7]: ~80%

Compound: GEGIIGLQAGTNKFASQIGMKIGAVRHIADIR-NH2 [P4]
- MIC80 synthetized peptides [4]: 180 ± 5 µM
- MIC80 synthetized peptides [5]: 80 ± 5 µM
- MIC80 synthetized peptides [6]: 50 ± 2 µM

Compound: QAGSNKGASQKGMS-NH2 [P2]
- MIC80 synthetized peptides [4]: 100 ± 3 µM
- Inhibition rate of biofilm formation [8]: about 40%
- MIC80 synthetized peptides [5]: 50 ± 5 µM
- MIC80 synthetized peptides [6]: 50 ± 2 µM
- Dispersion (clearance) of mature biofilm biomass [7]: ~90%

Compound: QAGTNK-NH2 [P1]
- MIC80 synthetized peptides [4]: 200 ± 5 µM
- MIC80 synthetized peptides [5]: 150 ± 3 µM
- MIC80 synthetized peptides [6]: 100 ± 5 µM
- Antibiofilm (eradication) activity, in words [7]: weakest antibiofilm activity
